Assay results reported in US20100216761A1, “NOVEL AZETIDINONES USEFUL AS INHIBITORS OF ELASTASE” (priority 2007, published 2010).
Where two headings read alike, the source gives them in different places.

Assays:
human CYP-3A4 enzyme = assay: P450 CYP-3A4 induction; type: in vitro ADME; settings: test compound 10 μM vs Rifampicin 10 μM (defined as 100%)
Method: This assay measured the in vitro induction of the human CYP-3A4 enzyme in the presence of 0.37, 1.11, 3.33, 10 and 30 μM test compound in an automated formate. The results are expressed as the relative percent induction measured for test compound at the 10 μM concentration compared to the known inducer standard Rifampicin at 10 μM (defined as 100%). (See Durocher, et. al., Anal. Biochem. 2000, 284, 316 for details of the assay).

[1] = target: T1, Human Leukocyte Elastase (HLE) (Homo sapiens, UniProt P08246); assay: HLE time-dependent inactivation assay, purified elastase; type: biochemical; settings: purified elastase 3 nM; inhibitor 26.5 nM; substrate 1 mM
T1 construct: The PMN lysates were prepared by isolating human neutrophils from whole blood; from tissue; host or cells: human neutrophils (PMN) isolated from whole blood, lysed by sonication in PBS
T1 sequence (P08246 30-267): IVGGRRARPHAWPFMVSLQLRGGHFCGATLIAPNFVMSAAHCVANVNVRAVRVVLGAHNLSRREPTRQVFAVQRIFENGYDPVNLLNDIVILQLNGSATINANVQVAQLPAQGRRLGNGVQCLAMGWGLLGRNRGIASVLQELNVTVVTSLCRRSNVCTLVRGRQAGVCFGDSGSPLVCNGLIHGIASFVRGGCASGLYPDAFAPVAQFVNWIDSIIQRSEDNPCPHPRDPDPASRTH
Method: As exemplified in Table 1, the Examples 1-6 of this application were determined to be potent, mechanism-based inactivators of Human Leukocyte Elastase (HLE) in two different in vitro time-dependent incubation assays. The two assays are described at the end of this Biological Data Section in Note 1. See the literature references in Note 2 for a discussion of the mechanism for this type of beta-lactam inactivation of HLE. Two sources of enzyme were used; either purified elastase or crude extracts of human polymorphonuclear leukocytes (PMN) containing elastase activity. […] For the compound of Example 1, the results were 638,000 M^−1 sec^−1 (average of n=3) and 809,000 M^−1 sec^−1 (n=4), respectively, and for Example 3, 804,000 M^−1 sec^−1 (average of n=4) and 952,000 M^−1 sec^−1 (n=5). […] Note that in this assay, head-to-head comparisons are particularly valuable.
Note 1: Enzyme Assays for the Inhibition of Human Polymorphonuclear Leukocyte Elastase Via Hydrolysis of N-Methyoxysuccinyl-alanyl-alanyl-prolylalanine-p-nitroanilide Reagent.
Prepare substrate by first dissolving in DMSO to 30 mg/ml (50 mM). Further dilute the substrate to 10 mM and add 25 μl to a final volume of 250 μl for a final concentration of 1 mM in the assay.
Prepare the enzyme in TES Buffer (0.045M TES (N-tris[hydroxymethyl]methyl-2-mino-ethanesulfonic acid), 0.45 M NaCl, pH 7.5.). Two sources of enzyme were used; either crude extracts of human polymorphonuclear leukocytes (PMN) containing elastase activity or purified elastase. The PMN lysates were prepared by isolating human neutrophils from whole blood after dextran sedimentation, ficoll density separation and red blood cell lysis. The neutrophils were lysed in PBS with sonciation and the concentration of active enzyme was determined by utilizing a standard curve of purified enzyme. For the purified elastase, the enzyme was resuspended at 10 mg/ml (˜340 μM) in 0.02M NaOAc, 50% glycerol. For both the PMN lysate and purified enzyme, a further dilution of enzyme was made to 30 nM and 25 μl was added to a final volume of 250 μl. The final concentration of enzyme in the assay was 3 nM.
The inhibitors to be tested were dissolved in DMSO at 10 mM. Directly before use, the inhibitors were further diluted into TES Buffer to 265 nM and […] was added to a final volume of 250 μl. The final concentration of inhibitor in the assay was 26.5 nM.
In a 96-well plate (flat bottom, polystyrene) 175 μl TES Buffer, 25 μl substrate, 25 μl inhibitor and 25 μl enzyme were added. After thoroughly mixing, the plate was then read in a spectrophotometer at 410 nm for 30 minutes counting every 10 seconds. Results were expressed as Kinact/Ki which is the second order rate constant in per mole per second for inactivation of the enzyme.

Rat pharmacokinetics = type: in vivo, Sprague-Dawley rats; settings: for Vd / clearance / half-life / AUCN, i.v. dosing @ 1 mpk: iv, 1 mg/kg; for AUCN, p.o. dosing @ 2 mpk: po, 2 mg/kg
Method: As exemplified in Table 7, the in vivo pharmacokinetic profiles for Examples 1 and 3 and the comparator Compound #290 were determined in the rat at the standard screening doses of 1 mpk i.v. and 2 mpk p.o. (Note 10).
Compounds were formulated as their mono-L-malic acid salts at 1 mg/mL in PEG-200:water 70:30 (v:v) and administered to Sprague-Dawley rats (n=2 for i.v. and n=3 for p.o. arms) at a dose of 1 mg/kg i.v. or 2 mgk p.o. (free base equivalent). Blood samples were taken at 0.03, 0.08, 0.25, 0.50, 1, 2, 4, 6, 8 and 24 hours for the i.v. arm and at 0.25, 0.50, 1, 2, 4, 6, 8 and 24 hours for the p.o. arm. The plasma concentrations of test compound at each time point were determined by protein precipitation with acetonitrile followed by liquid chromatography—tandem mass spectrometry versus a standard curve. The PK parameters were calculated using validated techniques known in the literature (see Stedman's Medical Dictionary, 23rd ed.).

CYP-P450 3A4 = target: T2, CYP-P450 3A4 (Homo sapiens, UniProt P08684); assay: CYP-P450 reversible inhibition, 3A4; type: in vitro ADME; settings: human liver microsomes or recombinant P450 microsomes; fluorescent probe
T2 construct: host or cells: human liver microsomes or recombinant P450 microsomes
Method: (§1) This assay measured the reversible inhibition of the test compounds against three cytochrome P450 isozymes (CYP-P450 3A4, 2C9 and 2D6) in an automated screening formate. […] Cumene hydroperoxide, NADPH or NADPH regenerating systems can be used as electron donors for the P450 catalytic cycle. Control incubations containing no inhibitor or no fluorescent probe were performed to evaluate the 100% and 0% activities, respectively. The activity of P450 enzyme was evaluated in the presence of 0.137, 0.273, 0.547, 1.094, 2.188, 4.375, 8.750, 17.5, 35.0 and 70.0 μM concentrations of the test compounds. Inhibition curves were generated and IC50 values were calculated for each tested compound using standard techniques.

CYP-P450 2D6 = target: T3, CYP-P450 2D6 (Homo sapiens, UniProt P10635); assay: CYP-P450 reversible inhibition, 2D6; type: in vitro ADME; settings: human liver microsomes or recombinant P450 microsomes; fluorescent probe
T3 construct: host or cells: human liver microsomes or recombinant P450 microsomes
Method: as §1

CYP3A4 = CYP3A4 (Homo sapiens, UniProt P08684)
Method: This assay measured the pre-incubation time-dependent inhibition of potential CYP-3A4 inhibitors in human liver microsomes using the CYP-3A4 mediated testosterone 6-beta-hydroxylation formate in the presence of test compounds in a semi-automated screening using LC-MS/MS detection. Test compounds are pre-incubated at 37° C. with human liver microsomes (2.5 mg/mL protein) and a NADPH regenerating system for 10, 20, 30 and 40 minutes prior to a ten-fold dilution with a 250 μM solution of testosterone. The diluted reaction is then incubated for 15 minutes at 37° C. The concentration of 6-β-hydroxytestosterone metabolite formed is measured by LC-MS/MS using validated analytical methods. The percent activity remaining is calculated by comparing the amount of marker metabolite formed in the presence of inhibitor compared to no inhibitor control samples at corresponding time points. No inhibitor control samples represent the maximum amount of 6-β-hydroxytestosterone formed under these assay conditions.

CYP-P450 2C9 = target: T4, CYP-P450 2C9 (Homo sapiens, UniProt P11712); assay: CYP-P450 reversible inhibition, 2C9; type: in vitro ADME; settings: human liver microsomes or recombinant P450 microsomes; fluorescent probe
T4 construct: host or cells: human liver microsomes or recombinant P450 microsomes
Method: as §1

T3 sequence (P10635 whole entry): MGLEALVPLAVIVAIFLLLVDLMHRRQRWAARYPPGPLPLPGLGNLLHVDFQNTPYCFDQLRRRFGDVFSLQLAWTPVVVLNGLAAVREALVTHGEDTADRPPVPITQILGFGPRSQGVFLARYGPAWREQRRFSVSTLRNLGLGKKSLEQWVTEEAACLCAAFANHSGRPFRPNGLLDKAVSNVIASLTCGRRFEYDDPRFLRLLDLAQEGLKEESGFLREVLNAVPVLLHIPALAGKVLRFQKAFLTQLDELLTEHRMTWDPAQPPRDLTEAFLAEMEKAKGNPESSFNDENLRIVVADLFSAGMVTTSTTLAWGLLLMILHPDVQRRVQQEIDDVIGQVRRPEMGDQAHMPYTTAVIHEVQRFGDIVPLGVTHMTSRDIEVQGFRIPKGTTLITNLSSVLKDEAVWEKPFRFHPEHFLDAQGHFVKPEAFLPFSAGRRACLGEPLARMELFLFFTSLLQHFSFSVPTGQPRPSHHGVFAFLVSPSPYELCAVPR
T2 sequence (P08684 whole entry): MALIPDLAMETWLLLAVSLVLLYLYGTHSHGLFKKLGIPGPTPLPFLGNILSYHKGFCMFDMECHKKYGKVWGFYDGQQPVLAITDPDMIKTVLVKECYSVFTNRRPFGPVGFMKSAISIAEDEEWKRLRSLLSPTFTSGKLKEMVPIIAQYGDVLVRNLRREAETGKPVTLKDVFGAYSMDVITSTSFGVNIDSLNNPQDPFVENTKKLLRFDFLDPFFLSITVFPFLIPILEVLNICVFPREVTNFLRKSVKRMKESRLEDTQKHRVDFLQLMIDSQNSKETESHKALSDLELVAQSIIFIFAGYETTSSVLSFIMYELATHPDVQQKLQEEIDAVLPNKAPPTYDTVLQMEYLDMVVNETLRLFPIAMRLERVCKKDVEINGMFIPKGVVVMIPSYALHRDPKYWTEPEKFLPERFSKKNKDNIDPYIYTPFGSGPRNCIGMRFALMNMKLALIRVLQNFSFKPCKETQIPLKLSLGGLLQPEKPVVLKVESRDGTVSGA
Chain of CYP3A4 (P08684 whole entry): as above
T4 sequence (P11712 whole entry): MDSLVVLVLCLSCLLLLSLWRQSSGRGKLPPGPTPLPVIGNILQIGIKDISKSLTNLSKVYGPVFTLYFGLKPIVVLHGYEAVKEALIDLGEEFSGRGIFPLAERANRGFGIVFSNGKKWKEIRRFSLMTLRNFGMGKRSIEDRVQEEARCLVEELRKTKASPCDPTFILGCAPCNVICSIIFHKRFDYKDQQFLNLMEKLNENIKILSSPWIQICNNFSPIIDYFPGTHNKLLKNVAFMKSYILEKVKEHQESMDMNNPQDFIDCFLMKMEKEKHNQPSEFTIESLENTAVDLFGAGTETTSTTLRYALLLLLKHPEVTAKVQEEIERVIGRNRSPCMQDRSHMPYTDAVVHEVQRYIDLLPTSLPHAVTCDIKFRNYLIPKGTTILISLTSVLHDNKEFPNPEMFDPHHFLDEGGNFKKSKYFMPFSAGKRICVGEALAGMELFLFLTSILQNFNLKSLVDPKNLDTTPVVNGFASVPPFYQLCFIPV

SMILES	CYP-3A4 Induction % of Rifampicin response @ 10 μM (human CYP-3A4 enzyme)	kinact/KI [1]	F (Rat pharmacokinetics; Sprague-Dawley, in vivo)	Vd (Rat pharmacokinetics; Sprague-Dawley, in vivo)	clearance (Rat pharmacokinetics; Sprague-Dawley, in vivo)	half-life (Rat pharmacokinetics; Sprague-Dawley, in vivo)	AUCN, i.v. dosing @ 1 mpk (Rat pharmacokinetics; in vivo)	AUCN, p.o. dosing @ 2 mpk (Rat pharmacokinetics; in vivo)	IC50 (CYP-P450 3A4)	IC50 (CYP-P450 2D6)	P450 CYP-3A4 Time-Dependent Inhibition rate @ 10 μM (#1) (CYP3A4)	P450 CYP-3A4 Time-Dependent Inhibition rate @ 10 μM (#2) (CYP3A4)	P450 CYP-3A4 Time-Dependent Inhibition rate @ 50 μM (CYP3A4)	IC50 (CYP-P450 2C9)	Vd (Rat pharmacokinetics; Sprague-Dawley, in vivo, i.v. 1 mpk, mono-L-malic acid salts, read-out: VDss)	half-life (Rat pharmacokinetics; Sprague-Dawley, in vivo, i.v. 1 mpk, mono-L-malic acid salts, read-out: t1/2 (converted))	F (Rat pharmacokinetics; oral bioavailability, p.o. 2 mpk vs i.v. 1 mpk)
CCC[C@@H](NC(=O)N1C(=O)C(CC)(CC)[C@@H]1Oc1ccc(C(=O)N(C)CCN(C)C)cc1)c1ccc(OC)cc1 [Compound #290, reference compound]	6%	523000 M⁻¹ s⁻¹	29%	14.5 L/kg	114 mL/min/kg	2 h	0.28 μMhrkg/mg	0.081 μMhrkg/mg	62 µM	39 µM	0.017 min⁻¹	0.008 min⁻¹	0.018 min⁻¹	25 µM	–	–	–
CCC[C@@H](NC(=O)N1C(=O)C(CC)(CC)[C@@H]1Oc1ccc(C(=O)N(CC)CCN(C)C)cc1)c1ccc(OC(F)(F)F)cc1 [Example 1, 2-(S)-[4-(((2-(Dimethylamino)ethyl)ethylamino)carbonyl)phenoxy]-3,3-diethyl-N-[1-(R)-(4-(trifluoromethoxy)phenyl)butyl]-4-oxo-1-azetidinecarboxamide]	5%	638000 M⁻¹ s⁻¹	25%	11 L/kg	42 mL/min/kg	3.1 h	0.65 μMhrkg/mg	0.16 μMhrkg/mg	46 µM	37 µM	0.005 min⁻¹	0.008 min⁻¹	0.018 min⁻¹	17 µM	–	–	–
CCC[C@@H](NC(=O)N1C(=O)C(CC)(CC)[C@@H]1Oc1ccc(C(=O)N(CC)CCN(C)C)cc1)c1ccc(C(F)(F)F)cc1 [Example 3, 2-(S)-[4-(((2-(Dimethylamino)ethyl)ethylamino)carbonyl)phenoxy]-3,3-diethyl-N-[1-(R)-(4-(trifluoromethyl)phenyl)butyl]-4-oxo-1-azetidinecarboxamide]	0%	804000 M⁻¹ s⁻¹	28%	–	113 mL/min/kg	–	0.24 μMhrkg/mg	0.069 μMhrkg/mg	39 µM	41 µM	0.014 min⁻¹	–	–	8.1 µM	29 L/kg	3.7 h	28%
